Laboratory results published in ChEMBL document CHEMBL1687911, “Design, synthesis, and biological evaluation of novel carbohydrate-based sulfamates as carbonic anhydrase inhibitors” (J Med Chem, 2011).

target: Carbonic anhydrase 9 (Homo sapiens, UniProt Q16790); experiment: Inhibition of human carbonic anhydrase 9 catalytic domain by CO2 hydration assay

Ki	SMILES
73 nM	CC(=O)O[C@@H]1O[C@H](COS(N)(=O)=O)[C@@H](OC(C)=O)[C@H](OC(C)=O)[C@H]1OC(C)=O
77 nM	CCC(=O)O[C@@H]1O[C@H](COS(N)(=O)=O)[C@@H](OC(=O)CC)[C@H](OC(=O)CC)[C@H]1OC(=O)CC
75 nM	CC(=O)O[C@@H]1O[C@H](COS(N)(=O)=O)[C@H](OC(C)=O)[C@H](OC(C)=O)[C@H]1OC(C)=O
7.8 nM	CC(=O)O[C@@H]1O[C@H](COS(N)(=O)=O)[C@@H](OC(C)=O)[C@H](OC(C)=O)[C@@H]1OC(C)=O
631 nM	CC(=O)OC[C@H]1O[C@@H](OC(C)=O)[C@H](OC(C)=O)[C@@H](OC(C)=O)[C@@H]1O[C@H]1O[C@H](COS(N)(=O)=O)[C@@H](OC(C)=O)[C@H](OC(C)=O)[C@H]1OC(C)=O
8.4 nM	CO[C@H]1O[C@H](COS(N)(=O)=O)[C@@H](OC(C)=O)[C@H](OC(C)=O)[C@H]1OC(C)=O
8.6 nM	NS(=O)(=O)OC[C@H]1OC(O)[C@H](O)[C@@H](O)[C@@H]1O (some centres not stated)
62 nM	NS(=O)(=O)OC[C@H]1OC(O)[C@H](O)[C@@H](O)[C@H]1O (some centres not stated)
53 nM	NS(=O)(=O)OC[C@H]1OC(O)[C@@H](O)[C@@H](O)[C@@H]1O (some centres not stated)
497 nM	NS(=O)(=O)OC[C@H]1O[C@H](O[C@H]2[C@H](O)[C@@H](O)[C@H](O)O[C@@H]2CO)[C@H](O)[C@@H](O)[C@@H]1O
9 nM	CO[C@H]1O[C@H](COS(N)(=O)=O)[C@@H](O)[C@H](O)[C@H]1O
4150 nM	CC(=O)OC[C@H]1O[C@@H](S(N)(=O)=O)[C@H](OC(C)=O)[C@@H](OC(C)=O)[C@H]1OC(C)=O
